Assay results from PMC6463675, “Panax ginseng Inhibits Metabolism of Diester Alkaloids by Downregulating CYP3A4 Enzyme Activity via the Pregnane X Receptor” (Evidence-based Complementary and Alternative Medicine : eCAM, 2019).

Key:
PXR = tested on: PXR; parameters: method as in PMID 23600156; details: previous work of the authors; cited from earlier work
CYP3A4 [1] = biological target: T1, CYP3A4 (Homo sapiens, UniProt P08684); experiment: Specific inhibitor method in HLMs: ketoconazole; type: in vitro ADME; parameters: tissue Rild-biotech X008067; host or cells: human liver microsomes; details: alkaloid 20 μM, KEN 1 μM (specific inhibitor for CYP3A), 37°C 60 min, n = 3
Method: (§1) To screen the CYP isoforms for aconitine, mesaconitine, and hypaconitine metabolism, we used known inhibitors of the metabolism of aconitine, mesaconitine, and hypaconitine in HLMs. ANF (CYP1A2: 1 μM; CAS: […]), SPE (CYP2C9: 1 μM; CAS: 526-08-9), DDTC (CYP2E1: 1 μM; CAS: 148-18-5), and KEN (CYP3A4: 1 μM; CAS: 65277-42-1) were all from EFEBIO Co., Ltd., which were incubated separately with aconitine, mesaconitine, and hypaconitine (20 μM), HLMs, and NADPH under the same incubation conditions as mentioned above. […] The hepatic metabolism rate of the incubation solution with no inhibitor was used as the negative control. The HLM (Rild-biotech, shanghai, China, X008067 ) mixtures were incubated at 37°C for 60 min. NADPH was preincubated for 5 min before it was added to the system. Precooled acetonitrile/methanol (800 μL, 1:1, v/v) was added to stop the incubation. […] Aconitine, mesaconitine, and hypaconitine standards of different concentrations were added to the incubation system to obtain the standard curve.
Target sequence in this assay (P08684 whole entry, canonical isoform): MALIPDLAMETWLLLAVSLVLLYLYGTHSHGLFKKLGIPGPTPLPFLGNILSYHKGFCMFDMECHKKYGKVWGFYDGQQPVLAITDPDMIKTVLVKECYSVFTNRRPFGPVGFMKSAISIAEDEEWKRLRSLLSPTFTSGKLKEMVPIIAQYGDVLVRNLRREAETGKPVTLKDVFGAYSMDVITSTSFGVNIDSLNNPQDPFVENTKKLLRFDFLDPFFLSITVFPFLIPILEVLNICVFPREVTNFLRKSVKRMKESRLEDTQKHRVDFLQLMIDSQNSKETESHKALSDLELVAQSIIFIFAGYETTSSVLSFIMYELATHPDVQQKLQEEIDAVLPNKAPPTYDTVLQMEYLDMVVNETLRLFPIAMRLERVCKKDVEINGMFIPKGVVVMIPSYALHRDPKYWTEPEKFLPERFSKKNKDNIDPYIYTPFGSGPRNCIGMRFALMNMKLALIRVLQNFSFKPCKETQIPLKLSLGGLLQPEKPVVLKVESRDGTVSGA

CYP3A4 [2] = biological target: T1, CYP3A4; experiment: Kinetic analysis in recombinant human CYP3A4; type: in vitro ADME; parameters: purchased Corning 456202; host or cells: baculovirus infected insect cells (BTI-TN-5B1-4); details: for in vitro mean intrinsic clearance rate by CYP3A4: CLint = Vmax/KM
Description: (§2) Recombinant human cytochrome P450 enzymes were obtained from Corning (USA, CYP3A4:456202; CYP1A2:456203; CYP2C9:456218; CYP2E1:456206). The activity were catalyzed by CYP3A4/CYP1A2/CYP2C9/CYP2E1, which were expressed from human CYP3A4/CYP1A2/CYP2C9/CYP2E1 cDNA, respectively, using a baculovirus expression system. Baculovirus infected insect cells (BTI-TN-5B1-4) were used to prepare these microsomes. These microsomes also contain cDNA-expressed humans P450 reductase and human cytochrome b5. A microsome preparation using wild type virus (Catalog No. 456201) was used as a control for native activities.
(§3) The kinetic parameters for the metabolism of aconitine, mesaconitine, and hypaconitine were determined by incubating increasing concentrations of aconitine, mesaconitine, and hypaconitine (5, 10, 20, and 40 μM) at 37°C for 90min with recombinant human CYP isoforms and NADPH under the incubation conditions described above. Precooled acetonitrile/methanol (800 μL, 1:1, v/v) was added to stop the incubation.
(§4) The compound reaction velocity (V) is expressed as V = (C0 – Ct)/T/Cp, where C0 and Ct are the initial and final concentrations of aconitine, mesaconitine, or hypaconitine in the incubation solution, respectively, T is the incubation time (min), and Cp is the protein concentration (mg·mL^−1 or nmol). The mean intrinsic clearance rate (CLint) for the in vitro incubation was estimated using Vmax/KM, where Vmax is the maximum velocity and KM is the Michaelis constant. All values are expressed as the mean ± standard deviation (SD).
Target sequence in this assay (P08684 2-503 limits assumed): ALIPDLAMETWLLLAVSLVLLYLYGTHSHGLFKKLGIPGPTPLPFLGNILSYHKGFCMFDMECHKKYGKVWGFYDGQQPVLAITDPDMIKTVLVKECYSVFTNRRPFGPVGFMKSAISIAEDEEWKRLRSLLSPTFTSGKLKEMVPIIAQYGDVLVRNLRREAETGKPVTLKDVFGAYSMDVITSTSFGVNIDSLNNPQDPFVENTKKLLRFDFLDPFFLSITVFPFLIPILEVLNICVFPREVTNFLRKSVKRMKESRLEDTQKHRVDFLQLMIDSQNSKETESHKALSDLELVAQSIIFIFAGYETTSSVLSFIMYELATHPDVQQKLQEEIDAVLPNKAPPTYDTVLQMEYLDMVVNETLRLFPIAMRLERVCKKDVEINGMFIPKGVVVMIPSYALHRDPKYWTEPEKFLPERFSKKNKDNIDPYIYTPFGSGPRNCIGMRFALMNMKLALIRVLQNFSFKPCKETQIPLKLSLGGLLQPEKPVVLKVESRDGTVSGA

CYP2E1 = biological target: T2, CYP2E1 (Homo sapiens, UniProt P05181); experiment: Specific inhibitor method in HLMs: diethyldithiocarbonate; type: in vitro ADME; details: alkaloid 20 μM, DDTC 1 μM (CYP2E1), 37°C 60 min, P > 0.05
T2 construct: tissue Rild-biotech X008067; host or cells: human liver microsomes
T2 sequence (P05181 whole entry): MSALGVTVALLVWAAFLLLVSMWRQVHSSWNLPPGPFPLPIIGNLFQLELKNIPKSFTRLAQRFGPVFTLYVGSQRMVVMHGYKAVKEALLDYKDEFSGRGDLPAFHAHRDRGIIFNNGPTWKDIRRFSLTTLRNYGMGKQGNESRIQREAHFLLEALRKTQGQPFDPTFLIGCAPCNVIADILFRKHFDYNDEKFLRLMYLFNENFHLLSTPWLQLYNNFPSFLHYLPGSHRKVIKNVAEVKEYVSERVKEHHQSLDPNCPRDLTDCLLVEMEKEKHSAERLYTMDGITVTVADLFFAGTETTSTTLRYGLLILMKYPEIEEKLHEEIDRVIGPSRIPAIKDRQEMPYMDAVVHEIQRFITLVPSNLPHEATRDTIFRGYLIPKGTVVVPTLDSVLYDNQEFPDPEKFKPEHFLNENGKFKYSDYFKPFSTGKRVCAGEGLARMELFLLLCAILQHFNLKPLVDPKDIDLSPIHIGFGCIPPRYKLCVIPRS
Method: as §1

CYP3A4 [3] = tested on: CYP3A4; parameters: method as in PMID 23600156; details: concentration-dependent manner; cited from earlier work
recombinant human CYP1A2 = biological target: T3, recombinant human CYP1A2 (Homo sapiens, UniProt P05177); experiment: Kinetic analysis in recombinant human CYP1A2; type: in vitro ADME; details: substrate 5, 10, 20, 40 μM, 37°C 90 min, n = 3
T3 construct: purchased Corning 456203; host or cells: baculovirus infected insect cells (BTI-TN-5B1-4)
T3 sequence (P05177 2-516 limits assumed): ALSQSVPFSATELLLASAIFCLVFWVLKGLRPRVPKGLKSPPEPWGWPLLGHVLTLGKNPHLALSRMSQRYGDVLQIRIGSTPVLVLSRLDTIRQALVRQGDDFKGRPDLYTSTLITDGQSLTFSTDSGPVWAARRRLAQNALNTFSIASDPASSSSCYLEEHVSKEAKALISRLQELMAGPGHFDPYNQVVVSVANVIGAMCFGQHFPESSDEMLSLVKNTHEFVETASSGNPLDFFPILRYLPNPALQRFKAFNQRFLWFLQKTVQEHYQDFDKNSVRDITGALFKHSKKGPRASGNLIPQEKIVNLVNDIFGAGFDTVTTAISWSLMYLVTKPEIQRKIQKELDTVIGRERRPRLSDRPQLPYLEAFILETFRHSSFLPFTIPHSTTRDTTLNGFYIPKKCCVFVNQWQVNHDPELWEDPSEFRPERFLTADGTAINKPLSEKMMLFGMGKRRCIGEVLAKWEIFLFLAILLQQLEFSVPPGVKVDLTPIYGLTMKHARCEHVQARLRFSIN
Description: as §2, §3
as §4, with “The mean intrinsic clearance rate (CLint) for the in vitro incubation was estimated using Vmax/KM, where Vmax is the maximum velocity and KM is the Michaelis constant.” left out

CYP3A4 [4] = experiment: Cocktail method: pharmacokinetics of probe drug midazolam after P. ginseng; details: rats, ketoconazole 40 mg·kg^−1 intraperitoneal 3 days, midazolam 10 mg·kg^−1 caudal vein
[5] = recombinant human CYP3A4, substrate 5, 10, 20, 40 μM, 37°C 90 min, n = 3

Compound: CC(C)=CCC[C@](C)(O)[C@H]1CC[C@]2(C)[C@@H]1[C@H](O)C[C@@H]1[C@@]3(C)CC[C@H](O[C@@H]4O[C@H](CO)[C@@H](O)[C@H](O)[C@H]4O[C@@H]4O[C@H](CO)[C@@H](O)[C@H](O)[C@H]4O)C(C)(C)[C@@H]3CC[C@]12C [Rg3]
- Effect on PXR (PXR): no obvious effects

Compound: COC[C@@]12CC[C@H](OC)[C@]34C(C([C@H](OC)[C@H]13)[C@]1(OC(C)=O)[C@H]3[C@@H](OC(=O)c5ccccc5)[C@](O)(C[C@H]34)[C@@H](OC)[C@@H]1O)N(C)C2 [hypaconitine]
- Hepatic metabolism rate when incubated with KEN, compared with negative control (CYP3A4 [1]): 10.11 ± 6.19%
- in vitro mean intrinsic clearance rate by CYP3A4 (CYP3A4 [2]; recombinant human CYP3A4): 0.0091 mL·nmol CYP^−1·min^−1
- Hepatic metabolism rate after incubation with DDTC, compared with control (CYP2E1): no significant change

Compound: pseudoginsenoside F11
- Effect on PXR (PXR): inhibitory effects

Compound: CC(C)=CCC[C@](C)(O)[C@H]1CC[C@]2(C)[C@@H]1[C@H](O)C[C@@H]1[C@@]3(C)CC[C@H](O)C(C)(C)[C@@H]3[C@@H](O)C[C@]12C [protopanaxatriol]
- Effect on PXR (PXR): moderate inductive effects

Compound: CC(C)=CCC[C@](C)(O)[C@H]1CC[C@]2(C)[C@@H]1[C@H](O)C[C@@H]1[C@@]3(C)CC[C@H](O)C(C)(C)[C@@H]3[C@@H](O[C@@H]3O[C@H](CO)[C@@H](O)[C@H](O)[C@H]3O[C@@H]3O[C@@H](C)[C@H](O)[C@@H](O)[C@H]3O)C[C@]12C [ginsenoside Rg2]
- Effect on PXR (PXR): inhibitory effects

Compound: CC(C)=CCC[C@](C)(O[C@@H]1O[C@H](CO)[C@@H](O)[C@H](O)[C@H]1O)[C@H]1CC[C@]2(C)[C@@H]1[C@H](O)C[C@@H]1[C@@]3(C)CC[C@H](O)C(C)(C)[C@@H]3[C@@H](O[C@@H]3O[C@H](CO)[C@@H](O)[C@H](O)[C@H]3O)C[C@]12C [ginsenoside Rg1]
- CYP3A4 mRNA expression (CYP3A4 [3]): downregulated
- Effect on PXR (PXR): inhibitory effects

Compound: COC[C@]12CN(C)[C@@H]3[C@@H]4[C@H](OC)[C@H]1[C@@]3([C@@H](OC)C[C@H]2O)[C@@H]1C[C@@]2(O)[C@H](OC(=O)c3ccccc3)[C@@H]1[C@]4(OC(C)=O)[C@@H](O)[C@@H]2OC [mesaconitine]
- Hepatic metabolism rate when incubated with KEN, compared with negative control (CYP3A4 [1]): 21.67 ± 19.64%
- in vitro mean intrinsic clearance rate by CYP3A4 (CYP3A4 [2]; recombinant human CYP3A4): 0.0056 mL·nmol CYP^−1·min^−1
- Km (CYP3A4 [2]; [5]): 131 ± 99.7 µM
- Vmax of CYP3A4 (CYP3A4 [2]; [5]): 0.73 ± 0.44 nmol·mg protein^−1·min^−1
- Hepatic metabolism rate after incubation with DDTC, compared with control (CYP2E1): no significant change
- Vmax of CYP1A2 (recombinant human CYP1A2): 0.27 ± 6.57 nmol·mg protein^−1·min^−1

Compound: CC(C)=CCC[C@](C)(O)[C@H]1CC[C@]2(C)[C@@H]1[C@H](O)C[C@@H]1[C@@]3(C)CC[C@H](O[C@@H]4O[C@H](CO)[C@@H](O)[C@H](O)[C@H]4O)C(C)(C)[C@@H]3CC[C@]12C [Rh2]
- Effect on PXR (PXR): no obvious effects

Compound: CC1(C)CCC[C@](C)([C@H]2CC[C@]3(C)[C@@H]2[C@H](O)C[C@@H]2[C@@]4(C)CC[C@H](O)C(C)(C)[C@@H]4[C@@H](O)C[C@]23C)O1 [Panaxotriol]
- Effect on PXR (PXR): inhibitory effects

Compound: CC(C)=CCC[C@](C)(O[C@@H]1O[C@H](CO)[C@@H](O)[C@H](O)[C@H]1O)[C@H]1CC[C@]2(C)[C@@H]1[C@H](O)C[C@@H]1[C@@]3(C)CC[C@H](O[C@@H]4O[C@H](CO)[C@@H](O)[C@H](O)[C@H]4O)C(C)(C)[C@@H]3CC[C@]12C [Ginsenoside F2]
- Effect on PXR (PXR): moderate inductive effects

Compound: CC(C)=CCC[C@](C)(O[C@@H]1O[C@H](CO[C@@H]2OC[C@@H](O)[C@H](O)[C@H]2O)[C@@H](O)[C@H](O)[C@H]1O)[C@H]1CC[C@]2(C)[C@@H]1[C@H](O)C[C@@H]1[C@@]3(C)CC[C@H](O[C@@H]4O[C@H](CO)[C@@H](O)[C@H](O)[C@H]4O[C@@H]4O[C@H](CO)[C@@H](O)[C@H](O)[C@H]4O)C(C)(C)[C@@H]3CC[C@]12C [ginsenoside Rb3]
- Effect on PXR (PXR): inhibitory effects

Compound: ginsenoside Rf1
- Effect on PXR (PXR): no obvious effects

Compound: CC(C)=CCCC(C)(O)[C@H]1CC[C@]2(C)[C@@H]1[C@H](O)C[C@@H]1[C@@]3(C)CC[C@H](O)C(C)(C)[C@@H]3CC[C@]12C (stereo in doubt) [protopanaxadiol]
- Effect on PXR (PXR): no obvious effects

Compound: CCN1C[C@]2(COC)[C@H](O)C[C@H](OC)[C@@]34[C@@H]5C[C@@]6(O)[C@H](OC(=O)c7ccccc7)[C@@H]5[C@@](OC(C)=O)([C@@H]([C@H](OC)[C@H]23)[C@@H]14)[C@@H](O)[C@@H]6OC [aconitine]
- Hepatic metabolism rate when incubated with KEN, compared with negative control (CYP3A4 [1]): 60.37 ± 5.01%
- Km at 90 min (CYP3A4 [2]; human): 10.1 ± 3.26 µM
- in vitro mean intrinsic clearance rate by CYP3A4 (CYP3A4 [2]; recombinant human CYP3A4): 0.0119 mL·nmol CYP^−1·min^−1
- Vmax of CYP3A4 (CYP3A4 [2]; [5]): 0.12 ± 0.01 nmol·mg protein^−1·min^−1
- Hepatic metabolism rate after incubation with DDTC, compared with control (CYP2E1): no significant change

Compound: CC(=O)N1CCN(c2ccc(OCC3COC(Cn4ccnc4)(c4ccc(Cl)cc4Cl)O3)cc2)CC1 (stereo not drawn) [Ketoconazole]
- AUC(0-t) of midazolam (CYP3A4 [4]; control 2.23 ± 0.64): 4.19 ± 0.14^∗∗ mg^.L^-1.h
- AUC(0-∞) of midazolam (CYP3A4 [4]; control 2.30 ± 0.59): 4.25 ± 0.15^∗∗ mg^.L^-1.h
- CLz of midazolam (CYP3A4 [4]; control 4.66 ± 1.43): 2.36 ± 0.08^∗∗ L^.h^-1.kg^−1
- Cmax of midazolam (CYP3A4 [4]; control 4.84 ± 1.89): 10.48 ± 0.63^∗∗ mg^.L^−1
